ChEMBL document CHEMBL1811835, “Intramolecular ion-pair prodrugs of zanamivir and guanidino-oseltamivir” (Bioorg Med Chem, 2011)

Key:
[1] = Octanol-water distribution coefficient, log D of the compound at pH 7.4 at 100 ug/mL; assay type: physicochemical
[2] = system: Plasma; assay: Stability in Sprague-Dawley rat plasma at 1 mM incubated for 24 hrs at 37 degC by LC-QTOF mass spectrometry; assay type: ADME, cell-free; conditions: 1000 µM
[3] = system: Plasma; assay: Stability in Sprague-Dawley rat plasma at 1 mM incubated for 24 hrs at 37 degC by MALDI-TOF mass spectrometry; assay type: ADME, cell-free; conditions: 1000 µM
[4] = Octanol-water distribution coefficient, log D of the compound at pH 6.5; assay type: physicochemical

| Structure (SMILES) | logD ([1]; read-out: logD) | logD [4] | further results |
| --- | --- | --- | --- |
| CCOC(=O)C1=C[C@H](NC(=N)N)[C@@H](NC(C)=O)[C@H]([C@H](O)[C@H](O)CO)O1 | -0.28 | – | – |
| CC(=O)N[C@H]1[C@H]([C@H](O)[C@H](O)CO)OC(C(=O)OCCCOC(=O)c2ccc3ccccc3c2O)=C[C@@H]1NC(=N)N | 0.75 | – | Stability [2]: Stable; Stability [3]: Stable |
| CCOC(=O)C1=C[C@@H](OC(CC)CC)[C@H](NC(C)=O)[C@@H](NC(=N)N)C1 | 0.31 | -1.17 | – |
| CCC(CC)O[C@@H]1C=C(C(=O)OCCCOC(=O)c2ccc3ccccc3c2O)C[C@H](NC(=N)N)[C@H]1NC(C)=O | 0.82 | – | – |
| CCC(CC)O[C@@H]1C=C(C(=O)O)C[C@H](NC(=N)N)[C@H]1NC(C)=O | – | – | logD [1]: -0.13 |
| O=C(O)c1ccc2ccccc2c1O [CARBOXYNAPHTHOL] | 0.16 | 0.25 | – |
| CCC(CC)O[C@@H]1C=C(C(=O)O)C[C@H](N)[C@H]1NC(C)=O [OSELTAMIVIR CARBOXYLATE] | -1.5 | – | – |
| CCCCCCCOC(=O)C1=C[C@H](NC(=N)N)[C@@H](NC(C)=O)[C@H]([C@H](O)[C@H](O)CO)O1 [ZANAMIVIR HEPTYL ESTER] | – | -1.31 | – |
| CC(=O)N[C@H]1[C@H]([C@H](O)[C@H](O)CO)OC(C(=O)O)=C[C@@H]1N=C(N)N [ZANAMIVIR] | -1 | – | – |
